Series [1] relates to differentiated SH-SY5Y cells. Description: Neurite extension (neurite length) in differentiated cells, microscopy. As to conditions: 24 h, read-out: Neurite Retraction IC50. In kind it is cell-based, human. As to the method:
SH-SY5Y cells were seeded at 5 × 10^5 cells/well in 12-well poly-D-Lysine coated plates and grown for 24 h to ensure cell adhesion. Cells were then treated with pesticides in differentiation media for 24 h. Cell images were captured using a phase contrast microscope (Olympus, DP70, London, UK). Cells were considered differentiated if each neuronal cell contained at least one process that was longer than its cell body. The neurite length from 100 randomly chosen cells were measured in five selected regions of each well using the neurite tracer tool in Image J (Image J 1.49k, National Institute of Health, Bethesda, MD, USA). Results are expressed as mean percentage neurite length (±SEM) relative to vehicle-control treated cells.

The subject of series [2] is SH-SY5Y cells. Nature of the series: Intracellular ATP levels, luminescence assay. It is filed as cell-based, human. The procedure: (§1) SH-SY5Y cells were differentiated as described by Encinas et al. (2000) after seeding onto either poly-D-Lysine hydrobromide (PDL) (50 µg/mL) (P6407, Sigma-Aldrich, Poole, UK) -coated cell cultureware or in 96-well microtitre plates (6005649, Perkin Elmer, Groningen, The Netherlands) with 10% FBS media and after settling, cells were grown to 60% confluency.
Undifferentiated and differentiated cells that were grown in 6-well plates were treated with MTT cell viability inhibition concentrations that produced 10, 20, 50, and an 80% loss of cell viability. Intracellular ATP levels were quantified using an ATP luminescence assay kit (ATP Bioluminescence Assay Kit CLS II (product 11 699 695 001, Roche, Germany), according to the manufacturer’s protocol. ATP standards were prepared according to the kit protocol across a concentration range of 1 × 10^−4 to 1 × 10^−10 M and after the addition of luciferase reagent to each well, the luminescence was measured using a luminometric plate reader (Thermo Fisher Scientific, Fluoroskan Ascent FC, Vantaa, Finland) using an integration time of 1 s. The ATP content in control and pesticide-treated samples were interpolated from the ATP standard curve. Experiments were performed in triplicates and five individual experiments were undertaken from which a mean was calculated, with blank values subtracted.

For series [3], the system named is SH-SY5Y cells. Nature of the series: Lactate dehydrogenase (LDH) assay, extracellular LDH. In kind it is cell-based, human. The procedure:
as §1
The production of active extracellular LDH in response to pesticide exposures was measured using an LDH assay kit (ab65393, Abcam, Cambridge, UK) according to the manufacturer’s instructions. After agent treatment (1–200 µM, or vehicle control), 50 µL of spent media was removed and LDH activity was measured spectrophotometrically at 450 nm (Multiskan Spectrum, Thermo Electron Corporation, Finland). Assays were performed in triplicates, with blank values from a negative control subtracted from test values. IC50 values were obtained from the concentration-response curves and expressed as means ± standard error of the mean (SEM). Experiments were performed with an n-number of at least five.

Series [4] has as its system SH-SY5Y cells. Nature of the series: MTT cell viability assay. It is filed as cell-based, human. To be noted: read-out: MTT IC50. As to the method:
as §1
In brief, 3 × 10^4 cells/well were grown in laminin-coated 96-well clear-bottom tissue culture plates. Undifferentiated cells were challenged with each agent for 24 h within the concentration ranges specified by diluting each compound in the cell culture medium. Differentiated cells that were grown on 96-well plates were treated with each compound diluted in cell culture medium. After incubation with the compounds, spent media was removed and then replaced with the corresponding media for differentiated or undifferentiated cells containing 10% of 5 mg/mL MTT and incubated for 4 h. Wells that only received 10% MTT and respective growth media served as background controls. The formazan crystals generated were suspended in 1:1 DMSO and isopropanol solution and the absorbance of wells read at 570 nm using a spectrophotometer (Multiskan Spectrum, Thermo Electron Corporation, Vantaa, Finland). Experiments were performed in triplicates from which an average was taken, and blank (negative control) values were subtracted. Cell viability was expressed as a percentage of survival […] from at least five repeated experiments. The concentration of agent producing a 50% inhibition of cell viability (IC50 values) was obtained from the concentration-response curves and expressed as means ± standard error of the mean (SEM).

The next series has as its system rat. As to conditions: cited from earlier work.
The conditions of series [5]: WHO class; cited from earlier work.
The target of series [6] is T1, acetylcholinesterase (AChE) (Homo sapiens, UniProt P22303).
T1 construct: endogenous in cells; host or cells: SH-SY5Y human neuroblastoma cells (ECACC-94030304), undifferentiated and differentiated
Nature of the series: cell-based. To be noted: 24 h.
Description: Inhibition of AChE was assessed using an Ellman’s assay modified for harvested cells [32, 33]. […] The supernatant was discarded, and the resultant cell pellet was retained and resuspended in 1 mL of potassium phosphate buffer pH 8.0. A volume of 100 µL was then assayed as a 1:1 mixture with ATCI and DTNB. […] Since the absorbance background increased with time, the associated absorbance of buffer blanks was subtracted at each time point for each data point. Corrected absorbance readings for each treatment were normalized to the means of the vehicle control and AChE activity presented as a percentage relative to the vehicle control.

The mark [7] stands for this setting: Homo sapiens, differentiated SH-SY5Y cells.

Like-named read-outs stand apart in the source and are kept apart here.

T1 sequence (P22303 32-614): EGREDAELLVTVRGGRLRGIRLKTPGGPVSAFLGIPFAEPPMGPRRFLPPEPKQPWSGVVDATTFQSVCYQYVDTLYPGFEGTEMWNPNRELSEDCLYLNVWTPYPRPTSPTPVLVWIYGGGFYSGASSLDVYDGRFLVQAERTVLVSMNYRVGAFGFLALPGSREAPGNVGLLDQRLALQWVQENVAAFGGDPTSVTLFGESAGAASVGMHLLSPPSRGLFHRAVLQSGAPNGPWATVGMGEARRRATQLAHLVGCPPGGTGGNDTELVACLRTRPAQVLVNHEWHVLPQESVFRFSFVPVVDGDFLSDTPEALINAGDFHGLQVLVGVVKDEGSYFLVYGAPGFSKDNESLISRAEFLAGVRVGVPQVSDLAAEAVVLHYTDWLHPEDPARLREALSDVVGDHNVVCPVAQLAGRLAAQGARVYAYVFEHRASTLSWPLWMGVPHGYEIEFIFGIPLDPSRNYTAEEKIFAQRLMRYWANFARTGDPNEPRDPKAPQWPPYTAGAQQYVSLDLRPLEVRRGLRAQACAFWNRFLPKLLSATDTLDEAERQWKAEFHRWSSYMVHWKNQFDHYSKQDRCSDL

Turning to `CCOP(=O)(OCC)Oc1nc(Cl)c(Cl)cc1Cl` [CPO, diethyl (3,5,6-trichloropyridin-2-yl) phosphate], the 50% inhibitory concentration (IC50) in series [1] (differentiated SH-SY5Y cells) worked out at 10.8 ± 0.1 µM; with SH-SY5Y cells [2] (differentiated SH-SY5Y cells, read-out: ATP IC50) it was 18.8 ± 0.1 µM; in the series on SH-SY5Y cells [2] (undifferentiated SH-SY5Y cells, read-out: ATP IC50) it was 29.6 ± 2.1 µM; in the series on SH-SY5Y cells [3] (differentiated SH-SY5Y cells, 24 h exposure, read-out: LDH IC50) it was 17.2 ± 1.1 µM; with SH-SY5Y cells [3] (undifferentiated SH-SY5Y cells, 24 h exposure, read-out: LDH IC50) it was 27.8 ± 2.1 µM; in the series on SH-SY5Y cells [4] (differentiated SH-SY5Y cells), 17.3 ± 0.9 µM. In the series with SH-SY5Y cells [4] (undifferentiated SH-SY5Y cells, 24 h exposure), the IC50 worked out at 29.4 ± 2.1 µM.

As to `CNC(=O)O/N=C/C(C)(C)SC` [Aldicarb, [(E)-(2-methyl-2-methylsulfanylpropylidene)amino] N-methylcarbamate], the IC50 in series [1] (setting [7]) is 30.2 ± 4.7 µM; with SH-SY5Y cells [2] (Homo sapiens, SH-SY5Y, differentiated SH-SY5Y cells, read-out: ATP IC50), 32.4 ± 1.2 µM; with SH-SY5Y cells [2] (Homo sapiens, SH-SY5Y, undifferentiated SH-SY5Y cells, read-out: ATP IC50) it was 40.2 ± 2.9 µM; with SH-SY5Y cells [3] (Homo sapiens, SH-SY5Y, 24 h, differentiated SH-SY5Y cells, 24 h exposure, read-out: LDH IC50) it was 29.9 ± 1.6 µM; in the series on SH-SY5Y cells [3] (Homo sapiens, SH-SY5Y, 24 h, undifferentiated SH-SY5Y cells, 24 h exposure, read-out: LDH IC50) it was 35.4 ± 1.4 µM; in the series with SH-SY5Y cells [4] (setting [7]), 31.6 ± 2.2 µM. Further, the IC50 in the series on SH-SY5Y cells [4] (Homo sapiens, undifferentiated SH-SY5Y cells, 24 h exposure) was 39.6 ± 3.6 µM. The “rat oral LD50” value with rat was 0.65 mg/kg. Further, the hazard classification result in series [5] is listed as “Class Ia”.

On to `CCOP(=S)(OCC)Oc1nc(Cl)c(Cl)cc1Cl` [chlorpyrifos, Chlorpyrifos], for which the “rat oral LD50” value with rat was 82 mg/kg.

Take `COP(=O)(OC)SCn1c(=O)oc2cc(Cl)cnc21` [AZO, 6-chloro-3-(dimethoxyphosphorylsulfanylmethyl)-[1,3]oxazolo[4,5-b]pyridin-2-one]: the half-inhibitory concentration (IC50) in series [1] (Homo sapiens, SH-SY5Y) was determined as 16.5 ± 1.3 µM; in series [6] (AChE Inhibition IC50, differentiated SH-SY5Y cells), 0.22 µM; in series [6] (AChE Inhibition IC50, undifferentiated SH-SY5Y cells), 0.3 µM; in the series with SH-SY5Y cells [2] (Homo sapiens, SH-SY5Y, read-out: ATP IC50, differentiated SH-SY5Y cells), 20.7 ± 0.1 µM; in the series with SH-SY5Y cells [2] (Homo sapiens, SH-SY5Y, read-out: ATP IC50, undifferentiated SH-SY5Y cells) it was 26 ± 0.6 µM; in the series with SH-SY5Y cells [3] (Homo sapiens, SH-SY5Y, 24 h, read-out: LDH IC50, differentiated SH-SY5Y cells, 24 h exposure), 20.5 ± 1.6 µM. Besides, the IC50 with SH-SY5Y cells [3] (Homo sapiens, SH-SY5Y, 24 h, read-out: LDH IC50, undifferentiated SH-SY5Y cells, 24 h exposure) came to 26.5 ± 0.9 µM; in the series on SH-SY5Y cells [4] (Homo sapiens, SH-SY5Y, 24 h), 26.9 ± 1.1 µM; with SH-SY5Y cells [4] (Homo sapiens, SH-SY5Y) it was 19.6 ± 0.5 µM. The “rat oral LD50” value in the series on rat is listed as 1180 mg/kg. Further, the hazard classification entry in series [5] was “Class II”.

As a reminder, the IC50 is the concentration that gives 50% inhibition.

Source of the values: publication PMC10216341 (Brain Sciences, 2023).
